Literature values, collected in patent publication US20240226034A1, “Use of Terpenoids and Salicylates as Anesthetics and Analgesics” (THE REGENTS OF THE UNIVERSITY OF CALIFORNIA, priority 2021, published 2024).

Test system: rats
Settings: antagonism of spinal GABAA receptors in rats; cited from earlier work

## FC(F)OC(Cl)C(F)(F)F (stereo not shown) [isoflurane]
  increase of EC50 for immobilization: up to 40%
